Measurements from US20100324049A1, “DIARYL KETIMINE DERIVATIVE HAVING ANTAGONISM AGAINST MELANIN-CONCENTRATING HORMONE RECEPTOR” (priority 2007, published 2010).

The compounds below were run against T1, human MCH-1R (Homo sapiens, UniProt Q99705) (assay: MCH binding inhibition test). Conditions: inhibition of specific [125I]MCH (50 pM) binding; membrane specimen from MCH-1R-expressing CHO-K1 cells; 25° C., 1 hour.
T1 construct: expressed in transfected cells; host or cells: CHO-K1 (American Type Culture Collection), plasmid vector pEF/myc/cyto
T1 sequence (Q99705 whole entry): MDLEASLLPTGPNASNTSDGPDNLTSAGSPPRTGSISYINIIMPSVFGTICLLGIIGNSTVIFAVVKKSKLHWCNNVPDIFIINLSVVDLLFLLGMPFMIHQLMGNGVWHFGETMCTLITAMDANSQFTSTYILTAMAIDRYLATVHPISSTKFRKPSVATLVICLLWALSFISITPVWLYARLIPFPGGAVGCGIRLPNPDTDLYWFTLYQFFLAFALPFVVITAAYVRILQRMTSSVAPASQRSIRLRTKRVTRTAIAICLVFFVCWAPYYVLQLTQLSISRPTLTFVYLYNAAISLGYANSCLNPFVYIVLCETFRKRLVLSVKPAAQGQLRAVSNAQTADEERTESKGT
Excerpt: A cDNA sequence encoding human MCH-1R [FEBS Letters, Vol. 398, 253 (1996); Biochimica et Biophisica Acta, Vol. 1401, 216 (1998)] was cloned into a plasmid vector pEF/myc/cyto (manufactured by In Vitro Gene). The expression plasmid thus obtained was transfected into host cells CHO-K1 (American Type Culture Collection) by using lipofectAMINE PLUS reagent (manufactured by Life Technologies) to thereby give MCH-1R-expressing cells.
A membrane specimen prepared from the MCH-1R-expressing cells was incubated together with a test compound and 50 pM of [^125I]MCH (manufactured by NEN) in an assay buffer (a 50 mM Tris buffer (pH7.4) containing 10 mM of magnesium chloride, 2 mM of ethylenediaminetetracetic acid, 0.01% of bacitracin and 0.2% of bovine serum albumin) at 25° C. for 1 hour, and then filtered through a glass filter GF/C (manufactured by Whatman). After washing the glass filter with a 50 mM Tris buffer (pH7.4) containing 10 mM of magnesium chloride, 2 mM of ethylenediaminetetracetic acid and 0.04% of Tween-20, the radioactivity on the glass filter was determined. Nonspecific binding was measured in the presence of 1 μM human MCH and the 50% inhibitory concentration (IC50) of the test compound to the specific binding to [^125I]MCH was determined. Table 1 indicates the results.

Row | Structure (SMILES) | IC50
1 | CC(C)(O)CO/N=C(\c1ccc(F)c(F)c1)c1ccc(CN2CCC(c3cnn4ncccc34)CC2)cn1 [Example 3-51, (E)-(3,4-Difluorophenyl){5-[(4-pyrazolo[1,5-b]pyridazin-3-ylpiperidin-1-yl)methyl]pyridin-2-yl}methanone O-(2-hydroxy-2-methylpropyl)oxime] | 11.2 nM
2 | CS(=O)(=O)CO/N=C(\c1ccc(F)c(F)c1)c1ccc(CN2CCC(c3ccc(F)nc3)CC2)cn1 [Example 3-53, (E)-(3,4-Difluorophenyl)(5-{[4-(6-fluoropyridin-3-yl)piperidin-1-yl]methyl}pyridin-2-yl)methanone O-[(methylsulfonyl)methyl]oxime] | 6.7 nM
3 | Fc1ccc(C2CCN(Cc3cnc(/C(=N/OC4CC4)c4ccc(F)c(F)c4)nc3)CC2)cn1 [Example 4-1, (E)-(3,4-difluorophenyl)(5-{[4-(6-fluoropyridin-3-yl)piperidin-1-yl]methyl}pyrimidin-2-yl)methanone-O-cyclopropyloxime] | 9.7 nM

Continued, values first:

Row | IC50 | Structure (SMILES)
4 | 0.27 nM | CCO/N=C(\c1ccc(F)c(F)c1)c1ccc(CN2CCC(c3ccn4ccnc4c3)CC2)cn1 [Example 3-26, (E)-(3,4-Difluorophenyl){5-[(4-imidazo[1,2-a]pyridin-7-ylpiperidin-1-yl)methyl]pyridin-2-yl)methanone O-ethyloxime]
5 | 0.11 nM | CCO/N=C(\c1ccc(F)c(F)c1)c1ccc(CN2CCC(c3cn(C)c4cnccc34)CC2)cn1 [Example 3-33, (E)-(3,4-Difluorophenyl)(5-{[4-(1-methyl-1H-pyrrolo[2,3-c]pyridin-3-yl)piperidin-1-yl]methyl}pyridin-2-yl)methanone O-ethyloxime]
